In patent publication EP0971601B1, “DECAFFEINATED MATE EXTRACTS AND THE USE THEREOF” (Sensient Flavors Italy S.R.L., priority 1997, dated 1998):
≈ marks a conversion by molar mass, not a printed value.

Legend:
rat erythrocytes (RBC) = test: UVB-induced lysis of erythrocytes (turbidimetric determination at 710 nm); assay type: cell-based; conditions: Erythrocyte, light or radiation study, 1.5 h, determined at 90 min irradiation, read-out: IC50, UVB-induced hemolysis
Method: • Fig.1 - HPLC profile of the decaffeinated aqueous extract of Maté. Chromatographic conditions: reverse phase column LC-18; mobile phase: linear gradient of 100% A (0.0127 N H3PO4/CH3CN/Ethylacetate 96.5'/3/0.5) to 30% B (CH3CN) in 30 min; flow rate: 1 ml/min; detection: UV-DAD 330 nm. […] Experimental conditions: Finnigan LCQ mass spectrometer; reverse phase column LC-18; mobile phase: linear gradient of 100% A (95% ammonium formiate / 5% CH3CN, pH 4.5 with HCOOH) to 30% B (95% CH3CN / 5% ammonium formiate, pH 4.5 with HCOOH) in 30 min; flow rate: 1 ml/min; negative ion detection. […] Values are the means ± S.D. of 5 determinations. • Fig.10 - Protective effect of decaffeinated aqueous extract of Maté on UVB-induced hemolysis. Red blood cells (0.2% suspensions) were exposed to UVB radiation for 210 min in the absence and in presence of different concentrations of decaffeinated aqueous extract of Maté; percentage hemolysis was turbidimetrically determined at 710 nm at 30 min intervals. Values are the means ± S.D. of 5 determinations.
Finally we evaluated in a cellular model (0.2% erythrocyte suspensions) the protective effect of the decaffeinated aqueous extract of Matè on the peroxidative stress induced by UVB exposure (0.4-4 J/cm^2), and monitoring the time-course of hemolysis (turbidimetric determination at 710 nm) at 30 min intervals.

[1] = DPPH stable free radical quenching (loss in absorbance at 517 nm); assay type: biochemical; conditions: methanol solution of DPPH, absorbance 517 nm
Excerpt: The activity of the extract in quenching the stable free radical DPPH through hydrogen transferring reaction, has been tested by monitoring the loss in absorbance at 517 nm of a methanol solution of DPPH [18] in the presence and the absence of increasing concentrations of Maté extract.

Compound | IC50 (rat erythrocytes (RBC)) [µg/mL] | IC50, quenching DPPH radical [1] [µg/mL]
O=C(/C=C/c1ccc(O)c(O)c1)O[C@@H]1C[C@](O)(C(=O)O)C[C@@H](O)[C@H]1O [Chlorogenic acid, 3-O-caffeoyl quinic acid] | 3.2 (≈ 9.03 µM) | –
O=C1O[C@H]([C@@H](O)CO)C(O)=C1O [ascorbic acid] | – | 19 (≈ 108 µM)
vitamin E | – | 19
